Data as given in ChEMBL document CHEMBL5352475, “Design, synthesis, and biological evaluation of novel glutaminase 1 allosteric inhibitors with an alkane chain tail group” (Eur J Med Chem, 2023).

Key:
[1] = Toxicity in BALB/c nude mouse xenografted with human HCT-116 cells assessed as obvious tissue lesion in spleen at 100 mg/kg, ip upto 20 days; type: organism-based; settings: in vivo, 480 h, time < 20 day
[2] = Toxicity in BALB/c nude mouse xenografted with human HCT-116 cells assessed as obvious tissue lesion in heart at 100 mg/kg, ip upto 20 days; type: organism-based; settings: in vivo, 480 h, time < 20 day
[3] = tested on: HCT-116; experiment: Antiproliferative activity against human HCT-116 cells in presence of alpha-ketoglutarate; type: functional, cell-based
[4] = Toxicity in BALB/c nude mouse xenografted with human HCT-116 cells assessed as change in cell morphology in kidney at 100 mg/kg, ip upto 20 days; type: organism-based; settings: in vivo, 480 h, time < 20 day
[5] = Toxicity in BALB/c nude mouse xenografted with human HCT-116 cells assessed as obvious tissue lesion in lung at 100 mg/kg, ip upto 20 days; type: organism-based; settings: in vivo, 480 h, time < 20 day
[6] = tested on: HCT-116; experiment: Induction of apoptosis in human HCT-116 cells assessed as late apoptotic cells at 3 uM measured after 24 hrs by FITC annexin-V/PI staining based flow cytometric analysis (reference value: 5.41%); type: functional
[7] = molecular target: T1, Glutaminase kidney isoform, mitochondrial (Homo sapiens) (UniProt O94925)
T1 sequence (whole entry): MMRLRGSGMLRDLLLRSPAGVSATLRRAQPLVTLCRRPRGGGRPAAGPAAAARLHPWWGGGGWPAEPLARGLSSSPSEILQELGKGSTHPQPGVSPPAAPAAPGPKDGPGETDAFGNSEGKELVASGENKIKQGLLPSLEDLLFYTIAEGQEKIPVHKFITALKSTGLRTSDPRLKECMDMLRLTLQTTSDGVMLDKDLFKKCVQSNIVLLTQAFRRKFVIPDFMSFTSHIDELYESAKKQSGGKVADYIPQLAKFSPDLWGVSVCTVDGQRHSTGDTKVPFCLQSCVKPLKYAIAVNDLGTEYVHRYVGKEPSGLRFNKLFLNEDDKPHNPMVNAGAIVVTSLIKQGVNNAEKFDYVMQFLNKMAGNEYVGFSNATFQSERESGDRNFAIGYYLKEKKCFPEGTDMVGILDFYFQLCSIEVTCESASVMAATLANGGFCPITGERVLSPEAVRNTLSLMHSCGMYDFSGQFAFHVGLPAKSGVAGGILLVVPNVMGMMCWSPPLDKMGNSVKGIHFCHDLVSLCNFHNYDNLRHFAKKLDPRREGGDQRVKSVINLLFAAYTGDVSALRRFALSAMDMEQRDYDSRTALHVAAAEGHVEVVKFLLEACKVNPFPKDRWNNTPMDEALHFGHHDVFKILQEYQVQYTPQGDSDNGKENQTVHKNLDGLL
Description: Stabilization of GLS1 (unknown origin) assessed as change in melting temperature by protein thermal assay

[8] = tested on: HCT-116; experiment: Induction of apoptosis in human HCT-116 cells assessed as early apoptotic cells at 3 uM measured after 24 hrs by FITC annexin-V/PI staining based flow cytometric analysis (reference value: 3.73%); type: functional
[9] = Toxicity in BALB/c nude mouse xenografted with human HCT-116 cells assessed as change in cell morphology in heart at 100 mg/kg, ip upto 20 days; type: organism-based; settings: in vivo, 480 h, time < 20 day
[10] = Metabolic stability in human liver microsomes assessed as half life by LC-MS/MS analysis; type: ADME, Microsome
[11] = tested on: HCT-116; experiment: Induction of apoptosis in human HCT-116 cells assessed as early apoptotic cells at 1 uM measured after 24 hrs by FITC annexin-V/PI staining based flow cytometric analysis (reference value: 3.73%); type: functional
[12] = Toxicity in BALB/c nude mouse xenografted with human HCT-116 cells assessed as change in cell structure in heart at 100 mg/kg, ip upto 20 days; type: organism-based; settings: in vivo, 480 h, time < 20 day
[13] = Toxicity in BALB/c nude mouse xenografted with human HCT-116 cells assessed as change in cell morphology in lung at 100 mg/kg, ip upto 20 days; type: organism-based; settings: in vivo, 480 h, time < 20 day
[14] = Toxicity in BALB/c nude mouse xenografted with human HCT-116 cells assessed as change in cell structure in lung at 100 mg/kg, ip upto 20 days; type: organism-based; settings: in vivo, 480 h, time < 20 day
[15] = Toxicity in BALB/c nude mouse xenografted with human HCT-116 cells assessed as obvious tissue lesion in liver at 100 mg/kg, ip upto 20 days; type: organism-based; settings: in vivo, 480 h, time < 20 day
[16] = tested on: HCT-116; experiment: Induction of apoptosis in human HCT-116 cells assessed as total apoptotic cells at 10 uM measured after 24 hrs by FITC annexin-V/PI staining based flow cytometric analysis relative to control; type: functional
[17] = Toxicity in BALB/c nude mouse xenografted with human HCT-116 cells assessed as change in cell structure in spleen at 100 mg/kg, ip upto 20 days; type: organism-based; settings: in vivo, 480 h, time < 20 day
[18] = tested on: HCT-116; experiment: Induction of apoptosis in human HCT-116 cells assessed as early apoptotic cells at 10 uM measured after 24 hrs by FITC annexin-V/PI staining based flow cytometric analysis (reference value: 3.73%); type: functional
[19] = Toxicity in BALB/c nude mouse xenografted with human HCT-116 cells assessed as change in cell structure in kidney at 100 mg/kg, ip upto 20 days; type: organism-based; settings: in vivo, 480 h, time < 20 day
[20] = tested on: HCT-116; experiment: Induction of apoptosis in human HCT-116 cells assessed as late apoptotic cells at 10 uM measured after 24 hrs by FITC annexin-V/PI staining based flow cytometric analysis (reference value: 5.41%); type: functional
[21] = Toxicity in BALB/c nude mouse xenografted with human HCT-116 cells assessed as obvious tissue lesion in kidney at 100 mg/kg, ip upto 20 days; type: organism-based; settings: in vivo, 480 h, time < 20 day
[22] = tested on: HCT-116; experiment: Induction of apoptosis in human HCT-116 cells assessed as late apoptotic cells at 0.1 uM measured after 24 hrs by FITC annexin-V/PI staining based flow cytometric analysis (reference value: 5.41%); type: functional
[23] = tested on: HCT-116; experiment: Antitumor activity against human HCT-116 cells xenografted in BALB/c nude mouse assessed as tumor growth inhibition at 100 mg/kg, ip for 20 days relative to control; type: functional; settings: time 20 day
[24] = Toxicity in BALB/c nude mouse xenografted with human HCT-116 cells assessed as change in cell morphology in spleen at 100 mg/kg, ip upto 20 days; type: organism-based; settings: in vivo, 480 h, time < 20 day
[25] = Metabolic stability in human liver microsomes assessed as clearance measured upto 120 mins by LC-MS/MS analysis; type: ADME, Microsome; settings: read-out: CLH
[26] = tested on: HCT-116; experiment: cells; settings: Homo sapiens, HCT-116, 72 h
Description: Antiproliferative activity against human HCT-116 cells incubated for 72 hrs by MTT assay

[27] = Toxicity in BALB/c nude mouse xenografted with human HCT-116 cells assessed as change in cell morphology in liver at 100 mg/kg, ip upto 20 days; type: organism-based; settings: in vivo, 480 h, time < 20 day
[28] = molecular target: T2, Glutaminase kidney isoform, mitochondrial (Homo sapiens, UniProt O94925); experiment: Inhibition of GLS1 (unknown origin) preincubated for 10 mins followed by glutamine addition measured after 60 mins
T2 sequence (O94925 whole entry): T1 sequence (whole entry)

[29] = Toxicity in BALB/c nude mouse xenografted with human HCT-116 cells assessed as as body weight loss at 100 mg/kg, ip upto 20 days; type: organism-based; settings: in vivo, 480 h, time < 20 day
[30] = tested on: HCT-116; experiment: Induction of apoptosis in human HCT-116 cells assessed as early apoptotic cells at 0.3 uM measured after 24 hrs by FITC annexin-V/PI staining based flow cytometric analysis (reference value: 3.73%); type: functional
[31] = Toxicity in BALB/c nude mouse xenografted with human HCT-116 cells assessed as change in cell structure in liver at 100 mg/kg, ip upto 20 days; type: organism-based; settings: in vivo, 480 h, time < 20 day
[32] = tested on: HCT-116; experiment: Induction of apoptosis in human HCT-116 cells assessed as late apoptotic cells at 1 uM measured after 24 hrs by FITC annexin-V/PI staining based flow cytometric analysis (reference value: 5.41%); type: functional
[33] = tested on: HCT-116; experiment: Induction of apoptosis in human HCT-116 cells assessed as late apoptotic cells at 0.3 uM measured after 24 hrs by FITC annexin-V/PI staining based flow cytometric analysis (reference value: 5.41%); type: functional
[34] = tested on: HCT-116; experiment: Induction of apoptosis in human HCT-116 cells assessed as early apoptotic cells at 0.1 uM measured after 24 hrs by FITC annexin-V/PI staining based flow cytometric analysis (reference value: 3.73%); type: functional
[35] = Toxicity in BALB/c nude mouse xenografted with human HCT-116 cells assessed as partial pyknosis of nuclei in liver at 100 mg/kg, ip upto 20 days; type: organism-based; settings: in vivo, 480 h, time < 20 day
[36] = Toxicity in BALB/c nude mouse xenografted with human HCT-116 cells assessed as proliferation of hepatocyte in liver at 100 mg/kg, ip upto 20 days; type: organism-based; settings: in vivo, 480 h, time < 20 day
[37] = Toxicity in BALB/c nude mouse xenografted with human HCT-116 cells assessed as cytoplasmic acidophilia in liver at 100 mg/kg, ip upto 20 days; type: organism-based; settings: in vivo, 480 h, time < 20 day
[38] = Toxicity in BALB/c nude mouse xenografted with human HCT-116 cells assessed as prominent of nucleolus in liver at 100 mg/kg, ip upto 20 days; type: organism-based; settings: in vivo, 480 h, time < 20 day
[39] = Toxicity in BALB/c nude mouse xenografted with human HCT-116 cells assessed as degeneration of hepatocyte in liver at 100 mg/kg, ip upto 20 days; type: organism-based; settings: in vivo, 480 h, time < 20 day
[40] = Toxicity in BALB/c nude mouse xenografted with human HCT-116 cells assessed as hyperplasia of renal tubular epithelium in kidney at 100 mg/kg, ip upto 20 days; type: organism-based; settings: in vivo, 480 h, time < 20 day

**Q.** What does the source list for CCCCOc1cccc(CC(=O)Nc2ccc(N3CCC(Nc4nnc(NC(=O)CCCC)s4)CC3)nn2)c1?
**A.** Activity [1]: Non-Toxic; Activity [2]: Non-Toxic; IC50 [3]: 41.5 µM; Activity [4]: Non-Toxic; Activity [5]: Non-Toxic; Activity [6]: 17.2%; ΔTm [7]: 15.1 °C; Activity [8]: 6.54%; Activity [9]: Non-Toxic; half-life [10]: 1.8 h; Activity [11]: 5.84%; Activity [12]: Non-Toxic; Activity [13]: Non-Toxic; Activity [14]: Non-Toxic; Activity [15]: Non-Toxic; Activity [16]: ~30%; Activity [17]: Non-Toxic; Activity [18]: 8.52%; Activity [19]: Non-Toxic; Activity [20]: 20.5%; Activity [21]: Non-Toxic; Activity [22]: 7.63%; TGI [23]: 38.9%; Activity [24]: Non-Toxic; microsomal CLint [25]: 32 µL/min/mg; IC50 [26]: 0.061 µM; Activity [27]: Non-Toxic; IC50 [28]: 0.007 µM; Activity [29]: Non-Toxic; Activity [30]: 5.76%; Activity [31]: Non-Toxic; Activity [32]: 12.3%; Activity [33]: 9.88%; Activity [34]: 4.9%

**Q.** With O=C(Cc1cccc(OC(F)(F)F)c1)Nc1ccc(CCCCc2nnc(NC(=O)Cc3ccccn3)s2)nn1 as the molecule, how does the Activity [35] read?
**A.** Toxic

**Q.** And the half-life [10]?
**A.** 1.65 h

**Q.** And the Activity [36]?
**A.** Toxic

**Q.** And the TGI [23]?
**A.** 43.7%

**Q.** And the Activity [37]?
**A.** Toxic

**Q.** And the Activity [38]?
**A.** Toxic

**Q.** And the microsomal CLint [25]?
**A.** 35 µL/min/mg

**Q.** What about the IC50 [26] of the same molecule?
**A.** 0.56 µM

**Q.** What about the Activity [29] of the same molecule?
**A.** Non-Toxic

**Q.** What about the Activity [39] of the same molecule?
**A.** Toxic

**Q.** And the Activity [40]?
**A.** Toxic
